Data reported in ChEMBL document CHEMBL1799982, “Synthesis, protein kinase inhibitory potencies, and in vitro antiproliferative activities of meridianin derivatives” (J Med Chem, 2011).

How the values were obtained:
PA-1 = test: Antiproliferative activity against human PA1 cells after 48 hrs by resazurin reduction test; assay type: functional, cell-based; settings: PA-1, 48 h
IMR-32 = test: Antiproliferative activity against human IMR32 cells by MTS reduction assay
MCF7 = test: Antiproliferative activity against human MCF7 cells after 48 hrs by resazurin reduction test; settings: MCF7, 48 h
[1] = target: Dual specificity tyrosine-phosphorylation-regulated kinase 1A (Rattus norvegicus, UniProt Q63470); test: Inhibition of rat recombinant GST-tagged DYRK1A using myelin protein as substrate and [gamma32]-ATP after 30 mins by scintillation counting
[2] = target: Dual specificity protein kinase CLK1 (Homo sapiens, UniProt P49759)
Sequence of Dual specificity protein kinase CLK1 (P49759 whole entry): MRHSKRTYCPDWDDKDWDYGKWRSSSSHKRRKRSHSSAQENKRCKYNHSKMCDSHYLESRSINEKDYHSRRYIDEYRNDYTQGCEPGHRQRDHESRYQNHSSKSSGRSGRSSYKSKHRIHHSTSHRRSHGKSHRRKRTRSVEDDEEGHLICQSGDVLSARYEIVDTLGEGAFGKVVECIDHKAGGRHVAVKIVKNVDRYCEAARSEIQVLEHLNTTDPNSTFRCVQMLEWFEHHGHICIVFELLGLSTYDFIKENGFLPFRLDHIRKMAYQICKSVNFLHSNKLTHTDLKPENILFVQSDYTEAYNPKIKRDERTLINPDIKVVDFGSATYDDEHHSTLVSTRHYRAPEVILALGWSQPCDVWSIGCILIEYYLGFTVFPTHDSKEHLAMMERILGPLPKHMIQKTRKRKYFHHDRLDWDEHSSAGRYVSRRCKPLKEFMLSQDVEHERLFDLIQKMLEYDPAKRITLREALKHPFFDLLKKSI

[3] = target: Glycogen synthase kinase-3 (Sus scrofa, UniProt B2LUN4+I6LNT8); test: Inhibition of pig brain GSK-3alpha/beta using YRRAAVPPSPSLSRHSSPHQSpEDEEE as substrate
[4] = Inhibition of pig brain CK1 delta/epsilon using RRKHAAIGpSAYSITA as substrate; set-up: species or system Sus scrofa
[5] = target: Cyclin-dependent kinase 5/CDK5 activator 1 (Homo sapiens, UniProt Q00535); test: Inhibition of human recombinant CDK5/p25 using Histone H1 and [gamma32]-ATP after 30 mins by scintillation counting; assay type: protein-complex assay
Sequence of Cyclin-dependent kinase 5/CDK5 activator 1 (Q00535 whole entry): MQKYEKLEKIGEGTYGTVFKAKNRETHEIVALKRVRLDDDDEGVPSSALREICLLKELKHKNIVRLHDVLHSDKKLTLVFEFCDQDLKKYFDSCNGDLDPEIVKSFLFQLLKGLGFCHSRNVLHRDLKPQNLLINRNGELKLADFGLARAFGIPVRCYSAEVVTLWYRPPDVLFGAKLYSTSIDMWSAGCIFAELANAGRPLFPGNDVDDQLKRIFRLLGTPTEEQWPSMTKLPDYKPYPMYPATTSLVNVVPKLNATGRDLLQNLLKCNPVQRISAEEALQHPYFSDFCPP
Sequence of Cyclin-dependent kinase 5/CDK5 activator 1 (Q15078 whole entry, further chain): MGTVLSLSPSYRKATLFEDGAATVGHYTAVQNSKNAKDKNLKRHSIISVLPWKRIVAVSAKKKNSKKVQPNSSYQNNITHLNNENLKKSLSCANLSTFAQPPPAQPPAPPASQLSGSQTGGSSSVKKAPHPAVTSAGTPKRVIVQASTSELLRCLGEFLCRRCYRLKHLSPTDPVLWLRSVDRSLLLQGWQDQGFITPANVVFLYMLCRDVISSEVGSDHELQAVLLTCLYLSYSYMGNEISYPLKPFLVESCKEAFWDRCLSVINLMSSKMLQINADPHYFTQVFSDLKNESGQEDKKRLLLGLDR

PC-3 = test: Antiproliferative activity against human PC3 cells after 48 hrs by resazurin reduction test; settings: PC-3, 48 h
SH-SY5Y = test: Antiproliferative activity against human SH-SY5Y cells by MTS reduction assay
HT-22 = test: Antiproliferative activity against mouse HT22 cells by MTS reduction assay
[6] = Antiproliferative activity against human primary fibroblasts after 48 hrs by resazurin reduction test; assay type: cell-based; settings: Fibroblast
DU-145 = test: Antiproliferative activity against human DU145 cells after 48 hrs by resazurin reduction test; assay type: functional, cell-based; settings: DU-145, 48 h

| SMILES | IC50 (PA-1) | IC50 (IMR-32) | IC50 (MCF7) | IC50 [1] | IC50 [2] | IC50 [3] | IC50 [4] | IC50 [5] | IC50 (PC-3) | IC50 (SH-SY5Y) | IC50 (HT-22) | IC50 [6] | IC50 (DU-145) |
| --- | --- | --- | --- | --- | --- | --- | --- | --- | --- | --- | --- | --- | --- |
| CC(=O)Nc1ccc(-c2cnc(N)nc2-c2c[nH]c3ccc(Br)cc23)cc1 | > 10 µM | > 10 µM | > 10 µM | 4.15 µM | 0.75 µM | 0.4 µM | 2.1 µM | 6.8 µM | > 10 µM | > 10 µM | > 10 µM |  |  |
| Nc1ncc(-c2ccc(C(F)(F)F)cc2)c(-c2c[nH]c3cccc(Br)c23)n1 | > 10 µM | > 10 µM | > 10 µM | 1.85 µM | 1.3 µM | 1 µM | > 10 µM | 4.7 µM | > 10 µM | > 10 µM | > 10 µM |  |  |
| Nc1ncc(-c2ccc(C(F)(F)F)cc2)c(-c2c[nH]c3ccc(Br)cc23)n1 | > 10 µM | > 10 µM | > 10 µM | > 10 µM | > 10 µM | 2 µM | > 10 µM | > 10 µM | > 10 µM | > 10 µM | > 10 µM |  |  |
| Nc1ncc(-c2ccc(C(F)(F)F)cc2)c(-c2c[nH]c3cc(Br)ccc23)n1 | > 10 µM | > 10 µM | > 10 µM | > 10 µM | > 10 µM | 6.1 µM | > 10 µM | > 10 µM | > 10 µM | > 10 µM | > 10 µM |  |  |
| COc1cccc(-c2cnc(N)nc2-c2c[nH]c3cccc(Br)c23)c1 | > 10 µM | > 10 µM | > 10 µM | 0.81 µM | 1.3 µM | 1.4 µM | > 10 µM | 6 µM | > 10 µM | > 10 µM | > 10 µM |  |  |
| COc1cccc(-c2cnc(N)nc2-c2c[nH]c3ccc(Br)cc23)c1 | > 10 µM | 20 µM | > 25 µM | 5.65 µM | 2.5 µM | 1.2 µM | 2.2 µM | 7.6 µM | > 10 µM | > 25 µM | 18 µM |  |  |
| COc1cccc(-c2cnc(N)nc2-c2c[nH]c3cc(Br)ccc23)c1 | > 10 µM | 18 µM | > 25 µM | 8.2 µM | 2.3 µM | 4.5 µM | 3.2 µM | > 10 µM | > 10 µM | > 25 µM | 16 µM |  |  |
| Nc1nccc(-c2c[nH]c3cc([N+](=O)[O-])ccc23)n1 |  | > 25 µM | > 25 µM | 1.1 µM | 0.38 µM | > 10 µM | 6.3 µM | > 10 µM |  | > 25 µM | > 25 µM |  |  |
| Nc1nccc(-c2c[nH]c3c([N+](=O)[O-])cccc23)n1 |  | > 25 µM | > 25 µM | 0.085 µM | 0.07 µM | > 10 µM | 10 µM | 6.3 µM |  | > 25 µM | > 25 µM |  |  |
| Nc1ccc2[nH]cc(-c3nc(N)ncc3I)c2c1 | 11 µM | > 10 µM | > 10 µM | 2.3 µM | 0.61 µM | > 10 µM | 0.27 µM | > 10 µM | 48 µM | > 10 µM | > 10 µM | 44 µM | 40 µM |
| Nc1ccc2c(-c3nc(N)ncc3I)c[nH]c2c1 | 13 µM | > 10 µM | > 10 µM | 0.22 µM | 0.08 µM | 4.2 µM | 0.51 µM | 6.2 µM | 47 µM | > 10 µM | > 10 µM | 36 µM | 26 µM |
| Nc1ncc(I)c(-c2c[nH]c3c(N)cccc23)n1 | 2.5 µM | 4 µM | 20 µM | 0.11 µM | 0.026 µM | 4.4 µM | 1.1 µM | 0.66 µM | 14 µM | 9 µM | 12 µM | 10.6 µM | 6.1 µM |
| Nc1nccc(-c2c[nH]c3cccc(Br)c23)n1 |  | > 25 µM | > 25 µM | 0.85 µM | 1.4 µM | > 10 µM | 5.3 µM | 10 µM |  | > 25 µM | > 25 µM |  |  |
| Nc1nccc(-c2c[nH]c3c(Br)cccc23)n1 |  | 25 µM | > 25 µM | 0.068 µM | 0.065 µM | > 10 µM | 4.2 µM | 3.1 µM |  | > 25 µM | > 25 µM |  |  |
| Nc1ncc(I)c(-c2c[nH]c3cccc(Br)c23)n1 | > 10 µM | > 10 µM | > 10 µM | 1.45 µM | 2.3 µM | > 10 µM | 1.3 µM | > 10 µM | > 10 µM | > 10 µM | > 10 µM |  |  |
| Nc1ncc(I)c(-c2c[nH]c3ccc(Br)cc23)n1 | > 10 µM | 13 µM | > 25 µM | 0.33 µM | 0.18 µM | 2.1 µM | 0.77 µM | 1.8 µM | > 10 µM | 23 µM | 8 µM |  |  |
| CC(=O)c1ccc(-c2cnc(N)nc2-c2c[nH]c3cccc(Br)c23)cc1 | > 10 µM | > 10 µM | > 10 µM | 2.1 µM |  |  | > 10 µM | 7 µM | > 10 µM | > 10 µM | > 10 µM |  |  |
| CC(=O)c1ccc(-c2cnc(N)nc2-c2c[nH]c3ccc(Br)cc23)cc1 | > 10 µM | 13 µM | 4.2 µM | 8.45 µM | 1.6 µM | 0.68 µM | > 10 µM | > 10 µM | > 10 µM | > 25 µM | 10 µM |  |  |
| CC(=O)Nc1ccc(-c2cnc(N)nc2-c2c[nH]c3cccc(Br)c23)cc1 | > 10 µM | > 10 µM | > 10 µM | > 10 µM | > 10 µM | > 10 µM | > 10 µM | > 10 µM | > 10 µM | > 10 µM | > 10 µM |  |  |
| Nc1nccc(-c2c[nH]c3ccccc23)n1 |  | > 25 µM | > 25 µM | 0.7 µM | 0.53 µM | > 10 µM | 6.2 µM | 5 µM |  | > 25 µM | > 25 µM |  |  |
| Nc1nccc(-c2c[nH]c3ccc(Br)cc23)n1 [MERIDIANIN C] |  | > 25 µM | 24 µM | 0.33 µM | 0.22 µM | 1.3 µM | 7.3 µM | 1.2 µM |  | > 25 µM | 9.3 µM |  |  |
| Nc1nccc(-c2c[nH]c3cc(Br)ccc23)n1 [MERIDIANIN D] |  | > 25 µM | > 25 µM | 0.13 µM | 0.12 µM | 7.2 µM | 3.8 µM | 1.2 µM |  | > 25 µM | > 25 µM |  |  |
